3 compounds from US10213449B2, “Compositions and methods for treating medulloblastoma” (The Board of Trustees of the Leland Stanford Junior …, priority 2016, dated 2019) can be followed below.

Assay [1] relates to Hh signaling in NIH 3T3s stimulated with SAG. Put plainly: RT-qPCR of Gli1 in NIH 3T3s stimulated with SAG (epistasis study). The assay is classed as cell-based, mouse. As to conditions: NIH 3T3s, SAG treated groups. The procedure:
(§1) Epistasis studies were next performed to determine where in the hedgehog pathway CK2 acts. The effect of TBB was examined: (i) in NIH 3T3s stimulated with SAG, a SMO agonist, (ii) in Sufu−/− mouse embryonic fibroblasts (MEF), and (iii) in NIH 3T3 cells overexpressing GLI2 (FIG. 3d-3f).
NIH3T3s or SUFU−/− MEFs were plated in 6 well plates at 400,000 cells/well in 10% FBS media constituted of DMEM (Invitrogen11960-069) supplemented with 10% FBS (Hyclone Labs SH30070.02), pen/strep (Life Technologies 15140-122), sodium pyruvate (Invitrogen 11360-070) and glutamax (Invitrogen 35050-061). Cells were then starved in 0.5% FBS for 24 h prior to treatment with 25% ShhN conditioned media in 0.5% FBS+/− drug treatment. GliΔN were treated 48 h post transfection. Unless otherwise stated, all treatments were performed for 6 h. Cell lysis and RNA extraction was performed using Qiashredder homogenizers (Qiagen 79654) and RNEasy mini kits (qiagen 74104) as per manufacturer's instructions. RNA was quantified on a nanodrop spectrophotometer (nanoddrop technologies ND-2000C). Transcript quantification was performed using a TaqMan RNA-to-Ct 1-Step Kit (Life technologies, 4392656) and the Applied Biosystems 7500 RT-PCR system as per the manufacturer's instructions. […]
On the technique in general: In qPCR the cycle at which signal appears reflects the starting amount.

Assay [2] concerns Hh signaling in NIH 3T3 cells exposed to Shh. In words: RT-qPCR of Hh target transcripts in Shh-stimulated NIH 3T3 cells. As to conditions: SHH ligand-induced NIH 3T3 cells; as early as 4 h post exposure. The class given is cell-based, mouse. The procedure:
NIH3T3s or SUFU−/− MEFs were plated in 6 well plates at 400,000 cells/well in 10% FBS media constituted of DMEM (Invitrogen11960-069) supplemented with 10% FBS (Hyclone Labs SH30070.02), pen/strep (Life Technologies 15140-122), sodium pyruvate (Invitrogen 11360-070) and glutamax (Invitrogen 35050-061). Cells were then starved in 0.5% FBS for 24 h prior to treatment with 25% ShhN conditioned media in 0.5% FBS+/− drug treatment. GliΔN were treated 48 h post transfection. Unless otherwise stated, all treatments were performed for 6 h. Cell lysis and RNA extraction was performed using Qiashredder homogenizers (Qiagen 79654) and RNEasy mini kits (qiagen 74104) as per manufacturer's instructions. RNA was quantified on a nanodrop spectrophotometer (nanoddrop technologies ND-2000C). Transcript quantification was performed using a TaqMan RNA-to-Ct 1-Step Kit (Life technologies, 4392656) and the Applied Biosystems 7500 RT-PCR system as per the manufacturer's instructions. All primers were commercially available TaqMan® Gene Expression Assay probes purchased from Life Technologies (csnk2a1: Mm00786779_s1, csnk2a2: Mm01243455_m1, csnk2b: Mm00487216_m1, Gli1: Mm00494654_m1, Gli2: Mm.273292, Ccnd1: Mm.273049, Ptch: Mm00436047_m1).

Assay [3] concerns MB cell lines (MB55, MB21, MB53). Put plainly: Cell viability of MB cell lines (CellTiter-Glo). As to conditions: multiple MB cell lines derived from Ptch1+/− and Ptch1+/−; Trp53−/− mice. The assay is classed as cell-based, mouse. As to the method: Ptch+/−MB cell lines MB55 and MB21 were kindly gifted from Dr. Rosalind Segal (Dana Farber Cancer Institute, Harvard Medical School) and Ptch^+/−; p53^−/− MB53 cells were kindly gifted from Charles Rudin (Memorial Sloan-Kettering Cancer Center). All cell lines were validated for high Gli activity. Cell viability was assessed using CellTiter-Glo (G7573, Promega, WI, USA) according to the manufacturers instructions. Cells were plated at 10000 cells/well in 96-well plates, treated with drugs as indicated and data was collected on a TECAN Infinite 200 plate reader.

Assay [4] has as its system Medulloblastoma cell lines (MB53, MB55 and MB21 cells). In words: Acquired resistance in medulloblastoma cell lines. As to conditions: CX-4945 10 uM. The assay is classed as cell-based, mouse. The procedure:
Medulloblastoma cell lines (MB53, MB55 and MB21 cells) were cultured in Neurobasal (Life Technologies 10888-022)+B27 supplement (Invitrogen 17504044)+DMSO (0.1%), CX-4945 (10 uM) or TBB (50 uM). […] Primer sequences are provided in supplemental table 5.

Assay [5] relates to Ptch+/−; Trp53−/−; SmoD477G MB intracranial allografts. Put plainly: Intracranial allograft survival study. The class given is in vivo, mouse. The settings on record: CX-4945 75 mg/kg PO BID vs vehicle control. The procedure: Ptch+/−; Tpr53−/−; SmoD477G were suspended in sterile PBS to an adjusted final volume of at 80,000 cells/2 uL injection. Mice were anesthetized and fixed to a stereotactic frame and the head was sterilized. A small sagittal incision was made in the mouse's scalp to expose the area surrounding lambda. The skull was sterilized a 0.7 mm drill bit was used to create a midline hole located 2 mm down from lambda. A Hamilton syringe with affixed 26 g needle was lowered to a depth of ˜3 mm then withdraw to 2.75 mm before injecting 2 uL (80,000) cells at 0.5 ul/min. The drill hole was closed with a thin slip of bone wax and the wound was closed. […] Corn oil was used as vehicle for both CX-4945 and DMSO. Weight, morbidity and survival were measured by a blinded collaborator. Kaplan-meyer survival curves were generated using GraphPad Prism and significance was measured by Logrank Mantel-Cox test.

The test system of assay [6] is Hh signaling in Sufu−/− mouse embryonic fibroblasts. In words: RT-qPCR of Gli1 in Sufu−/− MEFs (epistasis study). The class given is cell-based.
Source text: as §1
Sufu^−/− MEFs (conditional deletion of exons 4-8) were kindly provided by Pao-Tien Chang (UCSF). SAG (S7779), GDC-0449 (Vismodegib, S1082) and CX-4945 (Silmitasertib, S2248) was purchased from SelleckChem.com. TBB was purchased from EMD (218697). Shh-N conditional medium was made using a HEK 293 cell line that stably secretes ShhN as previously described. Myc-GL12-DN (17649, pCS2-MT-GLI2-deltaN) plasmid was purchased from Addgene (Cambridge, Mass., USA). […]
NIH3T3s or SUFU−/− MEFs were plated in 6 well plates at 400,000 cells/well in 10% FBS media constituted of DMEM (Invitrogen11960-069) supplemented with 10% FBS (Hyclone Labs SH30070.02), pen/strep (Life Technologies 15140-122), sodium pyruvate (Invitrogen 11360-070) and glutamax (Invitrogen 35050-061). […] RNA was quantified on a nanodrop spectrophotometer (nanoddrop technologies ND-2000C). Transcript quantification was performed using a TaqMan RNA-to-Ct 1-Step Kit (Life technologies, 4392656) and the Applied Biosystems 7500 RT-PCR system as per the manufacturer's instructions. […]

In assay [7] the test system is Ptch+/−; Tpr53−/−; SmoD477G MB flank allografts. Put plainly: Flank allograft study, SMO inhibitor-resistant MB. The class given is in vivo, mouse. The settings on record: TBB 30 mg/kg IP BID or GDC-0449 37.5 mg/kg IP BID vs vehicle control. As to the method:
In vivo efficacy studies were performed in accordance with protocols approved by the Institutional Animal Care and Use Committee at Stanford University. SmoWT-MB and Smo[…]-MB cells isolated from either parental SmoWT or Smo[…] mouse Ptch^+/-; p53^-/- MB hind-flank allografts were kindly provided by Charles Rudin (Memorial Sloan-Kettering Cancer Center). Ptch+/-; Tpr53-/-, or, Ptch+/-; Tpr53-/-; Smo[…] MB cells were mixed 1:1 with matrigel and 10^7 cells were injected into both flanks of a Nu/Nu mouse. Once tumors reached 225-275 mm^3, mice were randomized to treatment vs. control groups. Treatment groups received 30 mg/kg IP BID of TBB (reconstituted in DMSO at 50 ug/uL), or 37.5 mg/kg IP BID of GDC-0449 (reconstituted in DMSO at 62.5 ug/uL). Control mice were treated with an equivalent volume of DMSO. Corn oil was used in all groups to a total volume of 180 uL/injection and all doses were given with a 28 g insulin syringe. Tumors were measured and mice were weighed daily. Once tumors reached 1.5 cm^2 or met institutional euthanasia criteria, mice were sacrificed and tumors were harvested. Growth curves were generated using GraphPad Prism and significance was measured by two-way ANOVA.

“Also recorded” adds a separate entry of the source.

For `CNC1CCC(N(Cc2cccc(-c3ccncc3)c2)C(=O)c2sc3ccccc3c2Cl)CC1` (centres unmarked) [SAG], the “Gli1 mRNA levels (effect of SMO agonist)” value in assay [1] is listed as “Increased”.
Turning to `O=C(O)c1ccc2c(c1)nc(Nc1cccc(Cl)c1)c1ccncc12` [CX-4945, 5-(3-Chloroanilino)benzo[c][2,6]naphthyridine-8-carboxylic acid], in assay [2], the “Gli1 mRNA levels” value is “inhibited; also recorded: loss of Gli1 induction”. The cell viability result in assay [3] is recorded as “decreased; also recorded: dose dependent tumoricidal effects”. For the same compound, in assay [4], the “surviving cells after 2 weeks of culture with drug” value was “only control treated (DMSO) and MB55 TBB treated (50 uM) cells remained”. In addition, the “survival (Kaplan-Meier) of mice harboring intracranial allografts” value in assay [5] is “significant increase in survival”.
Consider `CS(=O)(=O)c1ccc(C(=O)Nc2ccc(Cl)c(-c3ccccn3)c2)c(Cl)c1` [GDC-0449, 2-chloro-N-(4-chloro-3-pyridin-2-ylphenyl)-4-methylsulfonylbenzamide], for which, in assay [2], the “Gli1 mRNA levels” value was “loss of Gli1 induction”. For the same compound, the “Gli1 mRNA / Gli transcript levels” value in assay [6] is reported as “no significant change”. In assay [7], the “tumor growth of SmoD477G MB flank allografts” value is “resistant”.
